# Where two headings read alike, the source gives them in different places.
# How the values were obtained:
# Escherichia coli TEM = test: MIC, standard strain 10; assay type: cell-based; details: 18 h, read-out: Minimal Inhibitory Concentration(MIC)
# Procedure: (§1) In order to illustrate antibiotic effectiveness of the compounds of the present invention, the minimal inhibitory concentrations (MIC's) of the representative compounds were determined against standard strains and compared with ceftazidime and cefpirome, which were used as control compounds.
# (§2) The MIC values were taken by employing a two-fold dilution method: that is, two-fold serial dilutions of each of the test compounds were made from initial concentration of […]; each 1.5 ml of them was dispersed in 13.5 ml of Muller Hinton agar medium to adjust to […]; the standard test strain which had the concentration of 10^7 CFU/ml was inoculated by medium;and these were incubated at 37° C. for 18 hours.
# (§3) The test used twenty kinds of standard test strains which induced urinary tract infections, respiratory organ infections, skin soft tissue infections, plasma infections, gastrointestinal infections, central nervous system infections, most of which produce β-lactamase.
# [1] = test system: Streptococcus pyogenes A 77; test: MIC, standard strain 2; assay type: cell-based; details: read-out: Minimal Inhibitory Concentration(MIC)
# Procedure: as §1, §2
# as §3, with “β-lactamase. The standard test strains used are as follows:” for “β-lactamase.”
# 2. Streptococcus pyogenes A 77
# [2] = test system: Pseudomonas aeruginosa 1771M; test: MIC, standard strain 15; assay type: cell-based; details: 18 h, read-out: Minimal Inhibitory Concentration(MIC)
# Procedure: as §1, §2
# as §3, with “β-lactamase. The standard test strains used are as follows:” for “β-lactamase.”
# 15. Pseudomonas aeruginosa 1771M
# Escherichia coli 1507 E = test: MIC, standard strain 11; assay type: cell-based; details: read-out: Minimal Inhibitory Concentration(MIC)
# Procedure: as §1, §2, §3
# [3] = test system: Pseudomonas aeruginosa 1771; test: MIC, standard strain 14; assay type: cell-based; details: read-out: Minimal Inhibitory Concentration(MIC)
# Procedure: as §1, §2
# as §3, with “β-lactamase. The standard test strains used are as follows:” for “β-lactamase.”
# 14. Pseudomonas aeruginosa 1771
# Escherichia coli 0 55 = test: MIC, standard strain 7; assay type: cell-based; details: 055, E. coli 0 55, two-fold dilution, Muller Hinton agar, 10^7 CFU/ml, 37° C., 18 hours, read-out: Minimal Inhibitory Concentration(MIC)
# Procedure: as §1, §2, §3
# [4] = test system: Pseudomonas aeruginosa 9.027; test: MIC, standard strain 12; assay type: cell-based; details: read-out: Minimal Inhibitory Concentration(MIC)
# Procedure: as §1, §2
# as §3, with “β-lactamase. The standard test strains used are as follows:” for “β-lactamase.”
# 12. Pseudomonas aeruginosa 9.027
# Salmonella typhimurium = test: MIC, standard strain 16; assay type: cell-based; details: Salmonella enterica, read-out: Minimal Inhibitory Concentration(MIC)
# Procedure: as §1, §2
# as §3, with “β-lactamase. The standard test strains used are as follows:” for “β-lactamase.”
# 16. Salmonella typhimurium
# [5] = test system: Staphylococcus aureus SG 511; test: MIC, standard strain 4; assay type: cell-based; details: SG511, 18 h, read-out: Minimal Inhibitory Concentration(MIC)
# Procedure: as §1, §2
# as §3, with “β-lactamase. The standard test strains used are as follows:” for “β-lactamase.”
# 4. Staphylococcus aureus SG 511
# Streptococcus faecium 8b = test: MIC, standard strain 3; assay type: cell-based; details: Enterococcus faecium, read-out: Minimal Inhibitory Concentration(MIC)
# Procedure: as §1, §2
# as §3, with “β-lactamase. The standard test strains used are as follows:” for “β-lactamase.”
# 3. Streptococcus faecium 8b
# [6] = test system: Klebsiella aerogenes 1552 E; test: MIC, standard strain 18; assay type: cell-based; details: read-out: Minimal Inhibitory Concentration(MIC)
# Procedure: as §1, §2
# as §3, with “β-lactamase. The standard test strains used are as follows:” for “β-lactamase.”
# 18. Klebsiella aerogenes 1552 E
# [7] = test system: Enterobacter cloacae 1321 E; test: MIC, standard strain 20; assay type: cell-based; details: read-out: Minimal Inhibitory Concentration(MIC)
# Procedure: as §1, §2
# as §3, with “β-lactamase. The standard test strains used are as follows:” for “β-lactamase.”
# 20. Enterobacter cloacae 1321 E
# Escherichia coli DC 2 = test: MIC, standard strain 9; assay type: cell-based; details: DC2, E. coli DC 2, two-fold dilution, Muller Hinton agar, 10^7 CFU/ml, 37° C., 18 hours, read-out: Minimal Inhibitory Concentration(MIC)
# Procedure: as §1, §2, §3
# MRSA(Yonsei Univ.) = test: MIC, clinically separated strains; assay type: cell-based
# Procedure: as §2
# [8] = test system: Streptococcus pyogenes A 308; test: MIC, standard strain 1; assay type: cell-based; details: A308, 18 h, read-out: Minimal Inhibitory Concentration(MIC)
# Procedure: as §1, §2
# as §3, with “β-lactamase. The standard test strains used are as follows:” for “β-lactamase.”
# 1. Streptococcus pyogenes A 308
# [9] = test system: Staphylococcus aureus 285; test: MIC, standard strain 5; assay type: cell-based; details: read-out: Minimal Inhibitory Concentration(MIC)
# Procedure: as §1, §2
# as §3, with “β-lactamase. The standard test strains used are as follows:” for “β-lactamase.”
# 5. Staphylococcus aureus 285
# Escherichia coli DC 0 = test: MIC, standard strain 8; assay type: cell-based; details: DC0, E. coli DC 0, two-fold dilution, Muller Hinton agar, 10^7 CFU/ml, 37° C., 18 hours, read-out: Minimal Inhibitory Concentration(MIC)
# Procedure: as §1, §2, §3
# [10] = test system: Pseudomonas aeruginosa 1592 E; test: MIC, standard strain 13; assay type: cell-based; details: read-out: Minimal Inhibitory Concentration(MIC)
# Procedure: as §1, §2
# as §3, with “β-lactamase. The standard test strains used are as follows:” for “β-lactamase.”
# 13. Pseudomonas aeruginosa 1592 E
# [11] = test system: Enterobacter cloacae P 99; test: MIC, standard strain 19; assay type: cell-based; details: P99, 18 h, read-out: Minimal Inhibitory Concentration(MIC)
# Procedure: as §1, §2
# as §3, with “β-lactamase. The standard test strains used are as follows:” for “β-lactamase.”
# 19. Enterobacter cloacae P 99
# acute toxicity test = details: in vivo; acute toxicity, intravenous injection
# [12] = test system: Staphylococcus aureus 503; test: MIC, standard strain 6; assay type: cell-based; details: read-out: Minimal Inhibitory Concentration(MIC)
# Procedure: as §1, §2
# as §3, with “β-lactamase. The standard test strains used are as follows:” for “β-lactamase.”
# 6. Staphylococcus aureus 503
# Staphylococcus = details: compared with DQ-2556; cited from earlier work
# Pseudomonas = details: compared with DQ-2556 or ceftazidime; cited from earlier work
structure (smiles),measurement,setting,value
"CO/N=C(\C(=O)N[C@@H]1C(=O)N2C(C(=O)[O-])=C(C[n+]3ccc(C(N)=S)c4c3CCC4)CS[C@H]12)c1csc(N)n1 [Example 5, 7-β-[(Z)-2-(2-aminothiazol-4-yl)-2-methoxyiminoacetamido]-3-[(2,3-cyclopenteno-4-thiocarbamoyl-1-pyridinium)methyl]-3-cephem-4-carboxylate]",MIC,Escherichia coli TEM,98 µg/mL
same,MIC,"[1]; A77, S. pyogenes A 77, two-fold dilution, Muller Hinton agar, 10^7 CFU/ml, 37° C., 18 hours",2 µg/mL
same,MIC,[2],391 µg/mL
same,MIC,"Escherichia coli 1507 E; E. coli 1507 E, two-fold dilution, Muller Hinton agar, 10^7 CFU/ml, 37° C., 18 hours",98 µg/mL
same,MIC,"[3]; Pseudomonas aeruginosa, P. aeruginosa 1771, two-fold dilution, Muller Hinton agar, 10^7 CFU/ml, 37° C., 18 hours",1560 µg/mL
same,MIC,Escherichia coli 0 55,49 µg/mL
same,MIC,"[4]; Pseudomonas aeruginosa, P. aeruginosa 9.027, two-fold dilution, Muller Hinton agar, 10^7 CFU/ml, 37° C., 18 hours",6250 µg/mL
same,MIC,"Salmonella typhimurium; S. typhimurium, two-fold dilution, Muller Hinton agar, 10^7 CFU/ml, 37° C., 18 hours",49 µg/mL
same,MIC,[5],781 µg/mL
same,MIC,"Streptococcus faecium 8b; S. faecium 8b, two-fold dilution, Muller Hinton agar, 10^7 CFU/ml, 37° C., 18 hours",12500 µg/mL
same,MIC,"[6]; K. aerogenes 1552 E, two-fold dilution, Muller Hinton agar, 10^7 CFU/ml, 37° C., 18 hours",49 µg/mL
same,MIC,"[7]; E. cloacae 1321 E, two-fold dilution, Muller Hinton agar, 10^7 CFU/ml, 37° C., 18 hours",13 µg/mL
same,MIC,Escherichia coli DC 2,25 µg/mL
same,"antibiotic activities against MRSA(Yonsei Univ.), in words",MRSA(Yonsei Univ.),unexpectedly potent antibiotic activities
same,MIC,[8],4 µg/mL
same,MIC,"[9]; Staphylococcus aureus, S. aureus 285, two-fold dilution, Muller Hinton agar, 10^7 CFU/ml, 37° C., 18 hours",1560 µg/mL
same,MIC,Escherichia coli DC 0,98 µg/mL
same,MIC,"[10]; P. aeruginosa 1592 E, two-fold dilution, Muller Hinton agar, 10^7 CFU/ml, 37° C., 18 hours",3120 µg/mL
same,MIC,[11],6250 µg/mL
same,LD50,acute toxicity test,> 3000 mg/kg
same,MIC,"[12]; Staphylococcus aureus, S. aureus 503, two-fold dilution, Muller Hinton agar, 10^7 CFU/ml, 37° C., 18 hours",391 µg/mL
"CC(C)(O/N=C(\C(=O)N[C@@H]1C(=O)N2C(C(=O)[O-])=C(C[n+]3ccccc3)CS[C@H]12)c1csc(N)n1)C(=O)O [ceftazidime, reference compound]","activity against Staphylococcus, in words",Staphylococcus,relatively low activity against Staphylococcus
same,MIC,Escherichia coli TEM,195 µg/mL
same,MIC,"[1]; A77, 18 h",49 µg/mL
same,MIC,[2],98 µg/mL
same,MIC,"Escherichia coli 1507 E; 1507E, 18 h",195 µg/mL
same,MIC,"[3]; Pseudomonas aeruginosa, 1771, 18 h",391 µg/mL
same,MIC,Escherichia coli 0 55,98 µg/mL
same,MIC,"[4]; Pseudomonas aeruginosa, 9.027, 18 h",3120 µg/mL
same,MIC,"Salmonella typhimurium; TYPHIMURIUM, 18 h",195 µg/mL
same,MIC,[5],12500 µg/mL
same,MIC,"Streptococcus faecium 8b; 8B, 18 h",100000 µg/mL
same,MIC,"[6]; 1552E, 18 h",98 µg/mL
same,MIC,"[7]; 1321E, 18 h",25 µg/mL
same,MIC,Escherichia coli DC 2,98 µg/mL
same,MIC,[8],98 µg/mL
same,MIC,"[9]; Staphylococcus aureus, 285, 18 h",12500 µg/mL
same,MIC,Escherichia coli DC 0,98 µg/mL
same,MIC,"[10]; 1592E, 18 h",781 µg/mL
same,MIC,[11],100000 µg/mL
same,"activity against Pseudomonas, in words",Pseudomonas,higher activity against Pseudomonas
same,MIC,"[12]; Staphylococcus aureus, 503, 18 h",98 µg/mL
